#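 All cell lines were grown in 96-well plates and treated with compound for 48 hours. At the GI50, growth is halved. TGI is the concentration that stops growth completely.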
# Tests used:
# Assay in all cases: inhibition of tumour cell growth, NCI panel, 48 h
# HOP-62 NSCLC = tested on: HOP-62 NSCLC
# OVCAR-5 ovarian = tested on: OVCAR-5 ovarian
# UACC-62 melanoma = tested on: UACC-62 melanoma
# SN12C renal = tested on: SN12C renal
# SK-MEL-2 melanoma = tested on: SK-MEL-2 melanoma
# UACC-257 melanoma = tested on: UACC-257 melanoma
# SNB-19 CNS = tested on: SNB-19 CNS
# CCRF-CEM leukemia = tested on: CCRF-CEM leukemia
# HCC-2998 colon = tested on: HCC-2998 colon
# OVCAR-3 ovarian = tested on: OVCAR-3 ovarian
# RPMI-8226 leukemia = tested on: RPMI-8226 leukemia
# PC-3 prostate = tested on: PC-3 prostate
# SF-539 CNS = tested on: SF-539 CNS
# HT29 colon = tested on: HT29 colon
# T-47D breast = tested on: T-47D breast
# EKVX NSCLC = tested on: EKVX NSCLC
# NCI-H23 lung = tested on: NCI-H23 lung
# NCI-H460 lung = tested on: NCI-H460 lung
# SK-MEL-28 melanoma = tested on: SK-MEL-28 melanoma
# ACHN renal = tested on: ACHN renal
# MCF7 breast = tested on: MCF7 breast
# SK-MEL-5 melanoma = tested on: SK-MEL-5 melanoma
# BT-549 breast = tested on: BT-549 breast
# NCI-H522 lung = tested on: NCI-H522 lung
# CAKI-1 renal = tested on: CAKI-1 renal
# RXF 393 renal = tested on: RXF 393 renal
# HCT-15 colon = tested on: HCT-15 colon
# SF-295 CNS = tested on: SF-295 CNS
# M14 melanoma = tested on: M14 melanoma
# MDA-MB-435 = tested on: MDA-MB-435
# A498 renal = tested on: A498 renal
# MOLT-4 leukemia = tested on: MOLT-4 leukemia
# SW-620 colon = tested on: SW-620 colon
# 786-0 renal = tested on: 786-0 renal
# MDA-MB-231 breast = tested on: MDA-MB-231 breast
# COLO 205 colon = tested on: COLO 205 colon
# NCI-H226 lung = tested on: NCI-H226 lung
# HS 578T breast = tested on: HS 578T breast
# HL-60(TB) leukemia = tested on: HL-60(TB) leukemia
# NCI/ADR-RES ovarian = tested on: NCI/ADR-RES ovarian
# MDA-N = tested on: MDA-N
# SF-268 CNS = tested on: SF-268 CNS
# DU-145 prostate = tested on: DU-145 prostate
# SR leukemia = tested on: SR leukemia
# TK-10 renal = tested on: TK-10 renal
# U251 CNS = tested on: U251 CNS
# UO-31 renal = tested on: UO-31 renal
# KM12 colon = tested on: KM12 colon
# A549 NSCLC = tested on: A549 NSCLC
# HCT-116 colon = tested on: HCT-116 colon
# K-562 leukemia = tested on: K-562 leukemia
# SNB-75 CNS = tested on: SNB-75 CNS
# MALME-3M melanoma = tested on: MALME-3M melanoma
# OVCAR-4 ovarian = tested on: OVCAR-4 ovarian
# LOX IMVI melanoma = tested on: LOX IMVI melanoma
# IGROV1 ovarian = tested on: IGROV1 ovarian
# SK-OV-3 ovarian = tested on: SK-OV-3 ovarian
# OVCAR-8 ovarian = tested on: OVCAR-8 ovarian
# HOP-92 NSCLC = tested on: HOP-92 NSCLC
structure (smiles),measurement,setting,value
CC1(C)CC(O)CC(C)(C)N1O,TGI,HOP-62 NSCLC,> 100 µM
same,TGI,OVCAR-5 ovarian,> 100 µM
same,TGI,UACC-62 melanoma,> 100 µM
same,TGI,SN12C renal,> 100 µM
same,TGI,SK-MEL-2 melanoma,> 100 µM
same,TGI,UACC-257 melanoma,> 100 µM
same,TGI,SNB-19 CNS,> 100 µM
same,TGI,CCRF-CEM leukemia,> 100 µM
same,TGI,HCC-2998 colon,> 100 µM
same,TGI,OVCAR-3 ovarian,> 100 µM
same,TGI,RPMI-8226 leukemia,> 100 µM
same,TGI,PC-3 prostate,> 100 µM
same,TGI,SF-539 CNS,> 100 µM
same,TGI,HT29 colon,> 100 µM
same,TGI,T-47D breast,> 100 µM
same,TGI,EKVX NSCLC,> 100 µM
same,GI50,NCI-H23 lung,> 100 µM
same,TGI,NCI-H23 lung,> 100 µM
same,TGI,NCI-H460 lung,> 100 µM
same,TGI,SK-MEL-28 melanoma,> 100 µM
same,TGI,ACHN renal,> 100 µM
same,TGI,MCF7 breast,> 100 µM
same,TGI,SK-MEL-5 melanoma,> 100 µM
same,TGI,BT-549 breast,> 100 µM
same,GI50,NCI-H522 lung,> 100 µM
same,TGI,NCI-H522 lung,> 100 µM
same,TGI,CAKI-1 renal,> 100 µM
same,TGI,RXF 393 renal,> 100 µM
same,TGI,HCT-15 colon,> 100 µM
same,TGI,SF-295 CNS,> 100 µM
same,TGI,M14 melanoma,> 100 µM
same,TGI,MDA-MB-435,> 100 µM
same,TGI,A498 renal,> 100 µM
same,TGI,MOLT-4 leukemia,> 100 µM
same,TGI,SW-620 colon,> 100 µM
same,TGI,786-0 renal,> 100 µM
same,TGI,MDA-MB-231 breast,> 100 µM
same,TGI,COLO 205 colon,> 100 µM
same,GI50,NCI-H226 lung,> 100 µM
same,TGI,NCI-H226 lung,> 100 µM
same,GI50,HS 578T breast,> 100 µM
same,TGI,HS 578T breast,> 100 µM
same,GI50,HL-60(TB) leukemia,> 100 µM
same,TGI,HL-60(TB) leukemia,> 100 µM
same,TGI,NCI/ADR-RES ovarian,> 100 µM
same,TGI,MDA-N,> 100 µM
same,TGI,SF-268 CNS,> 100 µM
same,TGI,DU-145 prostate,> 100 µM
same,TGI,SR leukemia,> 100 µM
same,TGI,TK-10 renal,> 100 µM
same,GI50,U251 CNS,> 100 µM
same,TGI,U251 CNS,> 100 µM
same,TGI,UO-31 renal,> 100 µM
same,TGI,KM12 colon,> 100 µM
same,TGI,A549 NSCLC,> 100 µM
same,TGI,HCT-116 colon,> 100 µM
same,TGI,K-562 leukemia,> 100 µM
same,TGI,SNB-75 CNS,> 100 µM
same,TGI,MALME-3M melanoma,> 100 µM
same,GI50,OVCAR-4 ovarian,> 100 µM
same,TGI,OVCAR-4 ovarian,> 100 µM
same,GI50,LOX IMVI melanoma,> 100 µM
same,TGI,LOX IMVI melanoma,> 100 µM
same,TGI,IGROV1 ovarian,> 100 µM
same,TGI,SK-OV-3 ovarian,> 100 µM
same,TGI,OVCAR-8 ovarian,> 100 µM
OCCc1ccsc1-c1sc(-c2cc(CCO)c(-c3sc(-c4cc(CCO)c(-c5sccc5CCO)s4)cc3CCO)s2)cc1CCO,TGI,HOP-62 NSCLC,2.76 µM
same,TGI,OVCAR-5 ovarian,2.85 µM
same,TGI,UACC-62 melanoma,3.41 µM
same,TGI,SK-MEL-2 melanoma,3.35 µM
same,TGI,UACC-257 melanoma,2.9 µM
same,TGI,SNB-19 CNS,3.01 µM
same,TGI,CCRF-CEM leukemia,> 25.4 µM
same,TGI,HCC-2998 colon,2.95 µM
same,TGI,OVCAR-3 ovarian,2.72 µM
same,TGI,RPMI-8226 leukemia,2.32 µM
same,TGI,PC-3 prostate,2.67 µM
same,TGI,SF-539 CNS,2.95 µM
same,TGI,HT29 colon,3.99 µM
same,TGI,T-47D breast,3.56 µM
same,TGI,EKVX NSCLC,2.91 µM
same,TGI,NCI-H23 lung,2.87 µM
same,TGI,NCI-H460 lung,2.95 µM
same,TGI,SK-MEL-28 melanoma,3.27 µM
same,TGI,ACHN renal,3 µM
same,TGI,MCF7 breast,1.95 µM
same,TGI,SK-MEL-5 melanoma,3.01 µM
same,TGI,BT-549 breast,2.21 µM
same,TGI,NCI-H522 lung,2.36 µM
same,TGI,CAKI-1 renal,2.95 µM
same,TGI,RXF 393 renal,1.21 µM
same,TGI,HCT-15 colon,3.52 µM
same,TGI,SF-295 CNS,2.7 µM
same,TGI,M14 melanoma,3.36 µM
same,TGI,MDA-MB-435,3.39 µM
same,TGI,A498 renal,3.65 µM
same,TGI,SW-620 colon,3.98 µM
same,TGI,786-0 renal,2.14 µM
same,TGI,MDA-MB-231 breast,11.9 µM
same,TGI,COLO 205 colon,5.03 µM
same,TGI,NCI-H226 lung,3.86 µM
same,TGI,HS 578T breast,7.31 µM
same,TGI,HL-60(TB) leukemia,3.61 µM
same,TGI,NCI/ADR-RES ovarian,4.14 µM
same,TGI,MDA-N,4.29 µM
same,TGI,SF-268 CNS,2.14 µM
same,TGI,DU-145 prostate,4.53 µM
same,TGI,SR leukemia,2.59 µM
same,TGI,TK-10 renal,3.15 µM
same,TGI,U251 CNS,2.6 µM
same,TGI,UO-31 renal,2.7 µM
same,TGI,KM12 colon,1.9 µM
same,TGI,A549 NSCLC,2.2 µM
same,TGI,HCT-116 colon,2.33 µM
same,TGI,HOP-92 NSCLC,2.89 µM
same,TGI,SNB-75 CNS,2.89 µM
same,TGI,MALME-3M melanoma,2.36 µM
same,TGI,OVCAR-4 ovarian,2.52 µM
same,TGI,LOX IMVI melanoma,2.47 µM
same,TGI,IGROV1 ovarian,2.6 µM
same,TGI,SK-OV-3 ovarian,3.11 µM
same,TGI,OVCAR-8 ovarian,3.13 µM

# From PubChem BioAssay (NCI)
